From the NIST ThermoML archive (doi:10.1021/je100151b)
± gives the expanded uncertainty stated by the source.

Tests used:
[1] = mn = molality of the nth substance listed, in mol/kg; settings: 101 kPa, Liquid, m1 = 0.25
[2] = refractive index (Na D-line) (dimensionless); mn = molality of the nth substance listed, in mol/kg; settings: 101 kPa, Liquid, Standard Abbe refractometry, m1 = 0.25

[Cl][Fe][Cl] [ferrous chloride] + O
Settings	mass density, [1] [kg/m3]	refractive index, [2]
288.15 K	998.9 ± 0.4	1.3375 ± 0.0019
293.15 K	998.2 ± 0.5	1.3468 ± 0.0019
298.15 K	997 ± 0.4	1.3559 ± 0.002
303.15 K	996 ± 0.5	1.3661 ± 0.0021
308.15 K	995 ± 0.4	1.3768 ± 0.0022
313.15 K	994.5 ± 0.4	1.3874 ± 0.0022
318.15 K	993.8 ± 0.5	1.398 ± 0.0022
